Test results from ChEMBL document CHEMBL5543101, “Identification of 3-aryl-5-methyl-isoxazole-4-carboxamide derivatives and analogs as novel HIF-2α agonists through docking-based virtual screening and structural modification” (Eur J Med Chem, 2024).
One block for each compound: values may come before it.

Key:
[1] = biological target: Endothelial PAS domain-containing protein 1 (Homo sapiens, UniProt Q99814)
Description: Agonist activity at HIF-2alpha in human 786-0 cells assessed as increase in VEGF secretion incubated for 20 hrs by ELISA

in vivo [2] = conditions: male, Sprague-Dawley, rat, po, 5 mg/kg
Description: Cmax in male Sprague-Dawley rat at 5 mg/kg, po measured after 32 hrs by LC-MS/MS analysis

in vivo [3] = conditions: male, Sprague-Dawley, rat, po, 5 mg/kg; remark: listed apart in the source
Description: Oral bioavailability in male Sprague-Dawley rat at 5 mg/kg measured after 32 hrs by LC-MS/MS analysis

in vivo [4] = conditions: male, Sprague-Dawley, rat, po, 5 mg/kg; remark: listed apart in the source
Description: Tmax in male Sprague-Dawley rat at 5 mg/kg, po measured after 32 hrs by LC-MS/MS analysis

[5] = Clearance in male Sprague-Dawley rat at 0.5 mg/kg, iv measured after 32 hrs by LC-MS/MS analysis; conditions: in vivo
[6] = Half-life in male Sprague-Dawley rat at 0.5 mg/kg, iv measured after 32 hrs by LC-MS/MS analysis; conditions: in vivo
[7] = Half-life in male Sprague-Dawley rat at 5 mg/kg, po measured after 32 hrs by LC-MS/MS analysis; conditions: in vivo
[8] = MRT (0 to t) in male Sprague-Dawley rat at 0.5 mg/kg, iv measured after 32 hrs by LC-MS/MS analysis; conditions: in vivo
[9] = Clearance in male Sprague-Dawley rat at 5 mg/kg, po measured after 32 hrs by LC-MS/MS analysis; conditions: in vivo
in vivo [10] = conditions: male, Sprague-Dawley, rat, iv, 0.5 mg/kg
Description: Cmax in male Sprague-Dawley rat at 0.5 mg/kg, iv measured after 32 hrs by LC-MS/MS analysis

in vivo [11] = conditions: male, Sprague-Dawley, rat, iv, 0.5 mg/kg; remark: listed apart in the source
Description: AUC (0 to t) in male Sprague-Dawley rat at 0.5 mg/kg, iv measured after 32 hrs by LC-MS/MS analysis

in vivo [12] = conditions: male, Sprague-Dawley, rat, po, 5 mg/kg; remark: listed apart in the source
Description: AUC (0 to t) in male Sprague-Dawley rat at 5 mg/kg, po measured after 32 hrs by LC-MS/MS analysis

[13] = MRT (0 to t) in male Sprague-Dawley rat at 5 mg/kg, po measured after 32 hrs by LC-MS/MS analysis; conditions: in vivo
[14] = Volume of distribution at steady state in male Sprague-Dawley rat at 0.5 mg/kg, iv measured after 32 hrs by LC-MS/MS analysis; conditions: in vivo
in vivo [15] = conditions: male, Sprague-Dawley, rat, iv, 0.5 mg/kg; remark: listed apart in the source
Description: Tmax in male Sprague-Dawley rat at 0.5 mg/kg, iv measured after 32 hrs by LC-MS/MS analysis

Sequence of Endothelial PAS domain-containing protein 1 (Q99814 whole entry, the tested form may be a part): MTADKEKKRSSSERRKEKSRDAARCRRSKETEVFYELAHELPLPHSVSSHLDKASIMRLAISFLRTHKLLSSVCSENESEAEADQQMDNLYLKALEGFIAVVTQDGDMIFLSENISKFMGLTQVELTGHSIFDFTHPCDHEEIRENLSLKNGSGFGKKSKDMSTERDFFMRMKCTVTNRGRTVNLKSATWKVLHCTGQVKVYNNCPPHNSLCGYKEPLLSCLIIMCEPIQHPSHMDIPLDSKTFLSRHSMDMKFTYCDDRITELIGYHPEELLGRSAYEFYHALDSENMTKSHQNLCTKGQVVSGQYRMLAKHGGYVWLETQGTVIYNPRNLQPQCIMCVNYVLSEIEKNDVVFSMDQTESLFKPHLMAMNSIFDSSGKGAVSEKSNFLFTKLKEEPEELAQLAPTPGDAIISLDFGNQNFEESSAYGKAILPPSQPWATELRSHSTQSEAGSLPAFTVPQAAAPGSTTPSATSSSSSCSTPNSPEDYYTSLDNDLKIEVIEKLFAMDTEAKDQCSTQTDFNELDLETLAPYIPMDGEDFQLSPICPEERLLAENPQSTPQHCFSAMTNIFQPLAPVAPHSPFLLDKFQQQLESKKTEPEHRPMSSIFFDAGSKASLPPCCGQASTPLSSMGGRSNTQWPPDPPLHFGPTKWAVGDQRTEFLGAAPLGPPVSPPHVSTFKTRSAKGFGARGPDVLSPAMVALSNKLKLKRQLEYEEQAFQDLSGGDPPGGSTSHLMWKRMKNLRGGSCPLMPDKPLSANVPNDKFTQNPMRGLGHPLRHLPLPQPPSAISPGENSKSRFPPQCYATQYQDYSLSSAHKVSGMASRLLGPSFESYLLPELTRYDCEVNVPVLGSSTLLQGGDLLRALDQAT

Structure (SMILES): Cc1onc(-c2ccccc2Cl)c1C(=O)Nc1cc(C(F)(F)F)ccn1
EC50 [1]: 5.62 µM

Structure (SMILES): Nc1ncc(C(=O)Nc2cccc(C(F)(F)F)c2)c(-c2ccccc2Cl)n1
EC50 [1]: 5.01 µM

Structure (SMILES): Cc1onc(-c2ccccc2F)c1C(=O)Nc1cccc(C(F)(F)F)c1
EC50 [1]: 10 µM

Structure (SMILES): Cc1onc(-c2ccccc2OC(F)F)c1C(=O)Nc1cccc(C(F)(F)F)c1
Cmax at 32 h (in vivo [2]): 35.9 ng/mL | bioavailability at 32 h (in vivo [3]): 7.02% | Tmax at 32 h (in vivo [4]): 1.5 h | Cmax at 32 h (in vivo [10]): 285 ng/mL | AUC(0-t) at 32 h (in vivo [11]): 278 ng·h/mL | AUC(0-t) at 32 h (in vivo [12]): 194 ng·h/mL | MRT last at 32 h [13]: 7.79 h | EC50 [1]: 2.29 µM | Tmax at 32 h (in vivo [15]): 1.8 min

Further compounds by falling EC50 [1], results first:

EC50 [1]: 9.86 µM
Structure (SMILES): Cc1onc(-c2ccccc2Cl)c1C(=O)N1CCOCC1

EC50 [1]: 6.21 µM
Structure (SMILES): Cc1onc(-c2ccccc2Cl)c1C(=O)Nc1cccc(C#N)c1

Cmax at 32 h (in vivo [2]): 1290 ng/mL | bioavailability at 32 h (in vivo [3]): 68.7% | Tmax at 32 h (in vivo [4]): 1.33 h | clearance at 32 h [5]: 5.33 mL/min/kg | half-life at 32 h [6]: 2.53 h | half-life at 32 h [7]: 5.09 h | MRT last at 32 h [8]: 1.54 h | CL/F at 32 h [9]: 8.83 mL/min/kg | Cmax at 32 h (in vivo [10]): 1620 ng/mL | AUC(0-t) at 32 h (in vivo [11]): 1610 ng·h/mL | AUC(0-t) at 32 h (in vivo [12]): 11100 ng·h/mL | MRT last at 32 h [13]: 4.6 h | Vd at 32 h [14]: 0.53 L/kg | EC50 [1]: 1.78 µM | Tmax at 32 h (in vivo [15]): 1.8 min
Structure (SMILES): O=C(Nc1cccc(C(F)(F)F)c1)c1cn[nH]c1-c1ccccc1Cl
